A short description of data set [1]: in vitro. The arrangement: Viability of infected HeLa host cells, resazurin conversion, bulk resorufin fluorescence relative to DMSO. The following applies: human, hela cells; bulk resorufin, mean of 2.
The subject of data set [2] is T1, C. trachomatis L2/434/Bu expressing GFP (CTL2-GFP).
T1 construct: L2/434/Bu GFP intracellular growth in HeLa cells
Kind of data set: microbe, parasite or virus in culture. The arrangement: C. trachomatis total inclusion area by high-content imaging, normalised to DMSO. The following applies: Chlamydia trachomatis, HeLa, 28.5 h; total inclusion area; read-out: % of control remaining. The method, boiled down: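 After bulk GFP and resorufin reads, fixed cells were Hoechst-stained and imaged to count chlamydial inclusions and host nuclei. Total inclusion area and number tracked bacterial growth, and nuclei number tracked host viability. MICs were derived, and 36,785 drug-like molecules were screened this way.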

Data set [3] relates to T2, CTL2-GFP (C. trachomatis L2/434/Bu, GFP-expressing).
T2 construct: L2/434/Bu, GFP-expressing
Kind of data set: microbe, parasite or virus in culture. The arrangement: Intracellular C. trachomatis growth in HeLa cells, bulk GFP fluorescence relative to DMSO. As to conditions: Chlamydia trachomatis, HeLa, 28.5 h; bulk GFP, mean of 2; read-out: % of control remaining. The method, then:
MICs were calculated as described above.

Data set [4] is described as follows: in vitro. The following applies: human, hela cells, % viability.

As to `CC(C)(CN)CN(Cc1ccc(-c2ccccc2)cc1)C(=O)Nc1ccccc1C(C)(C)C` [CBK002476C], in the data set “in vitro [1]”, the viability at 28.5 h, 1 µM was determined as 118%; the viability at 28.5 h, 5 µM worked out at 114%; the viability at 28.5 h, 10 µM worked out at 63.6%. Moreover, in data set [2], the activity at 1 µM stood at 114%, the activity at 5 µM was 50.1% and the activity at 10 µM is 2.01%. Also, in data set [3], the activity at 1 µM is 98.7%, the activity at 5 µM turned out to be 75.3% and the activity at 10 µM was 16.4%. For the same compound, the viability at 28.5 h, 10 µM in “in vitro [4]” stood at 94.2%.
Turning to `Fc1cccc(F)c1OCCOc1nc(N2CCNCC2)ccc1C(F)(F)F` [CBK003977A], in the data set “in vitro [1]”, the viability at 28.5 h, 1 µM came out at 92.3%; the viability at 28.5 h, 5 µM amounted to 90.5%; the viability at 28.5 h, 10 µM amounted to 89.4%. For the same compound, in data set [2], the activity at 1 µM was 53.4%, the activity at 5 µM amounted to 9.38% and the activity at 10 µM worked out at 1.96%. Also, in data set [3], the activity at 1 µM is 86.2%, the activity at 5 µM was determined as 37.8% and the activity at 10 µM is 27.8%. In addition, the viability at 28.5 h, 10 µM in the data set “in vitro [4]” came out at 87%.
As for `CCOc1ccc(OCC)c2c1n(C)c(SC)[n+]2C` [CBK005720G], in “in vitro [1]”, the viability at 28.5 h, 1 µM was 90.5%; the viability at 28.5 h, 5 µM is 86.2%; the viability at 28.5 h, 10 µM was found to be 83.6%. Further, in data set [2], the activity at 1 µM was 97.5%, the activity at 5 µM was 27.2% and the activity at 10 µM came to 3.38%. Further, in data set [3], the activity at 1 µM worked out at 139%, the activity at 5 µM turned out to be 64.8% and the activity at 10 µM is 9.96%. In the data set “in vitro [4]”, the viability at 28.5 h, 10 µM was found to be 92.1%.
In the case of `Cc1nc(C(=N)N)nc2ccccc12` [CBK010368C], in “in vitro [1]”, the viability at 28.5 h, 1 µM came to 98.3%; the viability at 28.5 h, 5 µM is 94.3%; the viability at 28.5 h, 10 µM was determined as 88.2%. Also, in data set [2], the activity at 1 µM is 60.8%, the activity at 5 µM is 35.9% and the activity at 10 µM came to 41.3%. In data set [3], the activity at 1 µM is 94.1%, the activity at 5 µM came out at 66.1% and the activity at 10 µM amounted to 65.1%. In addition, in “in vitro [4]”, the viability at 28.5 h, 10 µM was determined as 86.3%.
As for `O=C(Nc1cccc2c(NC(=O)N3CCCCC3)cccc12)N1CCCCC1` [CBK010775], in the data set “in vitro [1]”, the viability at 28.5 h, 1 µM was found to be 89.2%; the viability at 28.5 h, 5 µM stood at 88.8%; the viability at 28.5 h, 10 µM worked out at 84.5%. Moreover, in data set [2], the activity at 1 µM came to 97.8%, the activity at 5 µM came to 43.6% and the activity at 10 µM came out at 23.8%. Further, in data set [3], the activity at 1 µM came to 130%, the activity at 5 µM stood at 67.1% and the activity at 10 µM came out at 38.3%. In addition, the viability at 28.5 h, 10 µM in the data set “in vitro [4]” came to 109%.
For `COc1cc(N)c2ncccc2c1` [CBK011972C], in “in vitro [1]”, the viability at 28.5 h, 1 µM came out at 101%; the viability at 28.5 h, 5 µM worked out at 81.1%; the viability at 28.5 h, 10 µM was 80%. Further, in data set [2], the activity at 1 µM amounted to 85%, the activity at 5 µM was 10.9% and the activity at 10 µM turned out to be 1.09%. Also, in data set [3], the activity at 1 µM came to 90.6%, the activity at 5 µM was 23.4% and the activity at 10 µM was 7.94%. For the same compound, the viability at 28.5 h, 10 µM in the data set “in vitro [4]” came to 77.7%.
For `CC(=O)c1cc(-c2cccnc2)cs1` [CBK017637], in the data set “in vitro [1]”, the viability at 28.5 h, 1 µM stood at 113%; the viability at 28.5 h, 5 µM worked out at 110%; the viability at 28.5 h, 10 µM is 110%. In data set [2], the activity at 1 µM amounted to 86.9%, the activity at 5 µM was 83.4% and the activity at 10 µM came to 98.2%. In addition, in data set [3], the activity at 1 µM amounted to 140%, the activity at 5 µM worked out at 120% and the activity at 10 µM was 123%. Besides, in “in vitro [4]”, the viability at 28.5 h, 10 µM is 82.4%.
For the compound `CC(=O)NC[C@H]1CN(c2ccc(-c3nnc(CCC#N)s3)c(F)c2)C(=O)O1` [CBK017926], in the data set “in vitro [1]”, the viability at 28.5 h, 1 µM is 93.8%; the viability at 28.5 h, 5 µM was 92%; the viability at 28.5 h, 10 µM came out at 95.7%. In addition, in data set [2], the activity at 1 µM is 15.4%, the activity at 5 µM stood at 0.206% and the activity at 10 µM turned out to be 0.193%. Further, in data set [3], the activity at 1 µM was found to be 19.4%, the activity at 5 µM amounted to 2.09% and the activity at 10 µM stood at 3.05%. Besides, the viability at 28.5 h, 10 µM in the data set “in vitro [4]” stood at 87.1%.
`CC(=O)NC[C@H]1CN(c2ccc(-c3nnc([C@@H](C)N)s3)c(F)c2)C(=O)O1` [CBK017966]: in “in vitro [1]”, the viability at 28.5 h, 1 µM worked out at 92.5%; the viability at 28.5 h, 5 µM was determined as 87.1%; the viability at 28.5 h, 10 µM was 89.3%. Further, in data set [2], the activity at 1 µM is 84.6%, the activity at 5 µM is 5.78% and the activity at 10 µM worked out at 2.78%. In addition, in data set [3], the activity at 1 µM came out at 90.2%, the activity at 5 µM was 10% and the activity at 10 µM came to 3.77%. Further, the viability at 28.5 h, 10 µM in the data set “in vitro [4]” amounted to 93.2%.
With `CCn1c2c(c3cc(S(=O)(=O)c4ccc(C(F)(F)F)cc4)ccc31)CCNCC2` [CBK018453C], in the data set “in vitro [1]”, the viability at 28.5 h, 1 µM is 94.5%; the viability at 28.5 h, 5 µM was found to be 89.4%; the viability at 28.5 h, 10 µM is 91.9%. For the same compound, in data set [2], the activity at 1 µM is 133%, the activity at 5 µM came to 58.6% and the activity at 10 µM amounted to 12.8%. In data set [3], the activity at 1 µM turned out to be 143%, the activity at 5 µM was 54.5% and the activity at 10 µM stood at 5.22%. Further, the viability at 28.5 h, 10 µM in the data set “in vitro [4]” was found to be 97.5%.
Turning to `O=C(Nc1ccc(OC(F)(F)F)cc1)Nc1cc(-c2cccs2)n[nH]1` [CBK020563], in “in vitro [1]”, the viability at 28.5 h, 1 µM came to 113%; the viability at 28.5 h, 5 µM came to 110%; the viability at 28.5 h, 10 µM turned out to be 117%. In data set [2], the activity at 1 µM amounted to 96.5%, the activity at 5 µM stood at 24% and the activity at 10 µM was 10.2%. In data set [3], the activity at 1 µM is 100%, the activity at 5 µM was 13.4% and the activity at 10 µM was 4.7%. In addition, the viability at 28.5 h, 10 µM in the data set “in vitro [4]” is 82.5%.
In the case of `COc1ccc([C@@]23CC[C@@H](Nc4nc(-c5ccc(Br)cc5)cs4)C[C@@H]2N(C)CC3)cc1OC` [CBK036543], in the data set “in vitro [1]”, the viability at 28.5 h, 1 µM was determined as 91.3%; the viability at 28.5 h, 5 µM was 91%; the viability at 28.5 h, 10 µM came out at 109%. In addition, in data set [2], the activity at 1 µM was determined as 76.2%, the activity at 5 µM was 68.6% and the activity at 10 µM amounted to 45.2%. For the same compound, in data set [3], the activity at 1 µM was determined as 138%, the activity at 5 µM was determined as 104% and the activity at 10 µM was determined as 94.2%. Moreover, in “in vitro [4]”, the viability at 28.5 h, 10 µM was 87.7%.
In the case of `O=C(Nc1cc(Cl)nc(Cl)c1)N(Cc1ccc2ccccc2c1)CC1CCNCC1` [CBK049773], in the data set “in vitro [1]”, the viability at 28.5 h, 1 µM was determined as 95.5%; the viability at 28.5 h, 5 µM was determined as 95.6%; the viability at 28.5 h, 10 µM stood at 96.4%. Further, in data set [2], the activity at 1 µM turned out to be 120%, the activity at 5 µM was 75.2% and the activity at 10 µM is 44.5%. In data set [3], the activity at 1 µM is 131%, the activity at 5 µM is 84.2% and the activity at 10 µM was 61.7%. In addition, the viability at 28.5 h, 10 µM in the data set “in vitro [4]” amounted to 105%.
Regarding `O=C(Nc1cc(Cl)nc(Cl)c1)N(Cc1ccc(-c2ccccc2)cc1)CC1CCNCC1` [CBK049794], in the data set “in vitro [1]”, the viability at 28.5 h, 1 µM came out at 95.2%; the viability at 28.5 h, 5 µM was 100%; the viability at 28.5 h, 10 µM amounted to 97.9%. For the same compound, in data set [2], the activity at 1 µM was 62.1%, the activity at 5 µM stood at 41.7% and the activity at 10 µM was 25.8%. Further, in data set [3], the activity at 1 µM came to 115%, the activity at 5 µM worked out at 90.8% and the activity at 10 µM came to 90.8%. The viability at 28.5 h, 10 µM in “in vitro [4]” worked out at 82.6%.
Take `c1ccc2c3c([nH]c2c1)C1(CCN(CCC2CCCCC2)C1)OCC3` (centres unmarked) [CBK061789]: in “in vitro [1]”, the viability at 28.5 h, 1 µM came to 92.9%; the viability at 28.5 h, 5 µM turned out to be 90%; the viability at 28.5 h, 10 µM turned out to be 84.9%. Also, in data set [2], the activity at 1 µM worked out at 51.4%, the activity at 5 µM stood at 5.37% and the activity at 10 µM came out at 3.22%. Besides, in data set [3], the activity at 1 µM stood at 168%, the activity at 5 µM worked out at 72.4% and the activity at 10 µM was 23.7%. Further, the viability at 28.5 h, 10 µM in “in vitro [4]” turned out to be 83.3%.
Consider `COc1ccc(C(C)C)cc1-c1cn2ccnc2c(N2CCN(c3ccncc3)CC2)n1` [CBK066217], for which, in the data set “in vitro [1]”, the viability at 28.5 h, 1 µM was found to be 102%; the viability at 28.5 h, 5 µM is 104%; the viability at 28.5 h, 10 µM is 101%. Further, in data set [2], the activity at 1 µM was 96.6%, the activity at 5 µM was found to be 75.5% and the activity at 10 µM turned out to be 31.5%. In data set [3], the activity at 1 µM came to 91.5%, the activity at 5 µM was found to be 63.5% and the activity at 10 µM turned out to be 28.4%. In “in vitro [4]”, the viability at 28.5 h, 10 µM was determined as 116%.
For the compound `O=C(CSc1nnc(-c2cccnc2)o1)c1ccccc1` [CBK068446], in “in vitro [1]”, the viability at 28.5 h, 1 µM worked out at 112%; the viability at 28.5 h, 5 µM is 111%; the viability at 28.5 h, 10 µM came to 114%. In addition, in data set [2], the activity at 1 µM worked out at 67.4%, the activity at 5 µM is 24% and the activity at 10 µM is 6.22%. In addition, in data set [3], the activity at 1 µM stood at 74.8%, the activity at 5 µM worked out at 13.2% and the activity at 10 µM amounted to 1.98%. Also, the viability at 28.5 h, 10 µM in “in vitro [4]” is 139%.

In general, viability refers to a read-out of living cells in per cent, often relative to untreated cells.
